Measurements taken from patent publication US7829662B2, “Method of treating apoptosis and compositions thereof” (Dana Farber Cancer Institute, Inc., priority 2001, dated 2010).
“Also recorded” adds a separate entry of the source.

What was measured:
[1] = system: mitochondria; test: Cytochrome c release from isolated liver mitochondria (immunoblot densitometry or ELISA); format: biochemical, Balb/cJ mice
Experimental: Mitochondria were isolated from liver of Balb/cJ mice by standard differential centrifugation, and resuspended in isolation buffer (IB) (0.2 M sucrose, 10 mM Tris-MOPS pH 7.4, 0.1 mM EGTA-Tris, 0.1% delipidated BSA).
At the indicated time, mitochondria were pelleted by centrifugation at 12000×g at 4° C. for 3 min, and resuspended in the same volume of EB. Cytochrome c release was determined either by densitometry (Stratagene Eagle Eye II, BioRad) of immunoblots, or by rat/mouse specific ELISA performed on mitochondrial pellet and supernatant diluted 1:20 in PBS containing 0.5% Triton X-100 (R&D systems, MN). Cytochrome c is reported as the percentage of the supernatant over the total (pellet plus supernatant).
For SDS-PAGE, 20 μg of mitochondrial protein was loaded in each lane of a 12% NuPAGE (NoVex, CA) gel. After separation, proteins were transferred onto PVDF membranes (Immobilon-P, Millipore, Calif.) and membranes were probed as indicated with the following primary antibodies: anti-cytochrome c (Pharmingen, CA, 1:1000); anti-BID (1:1500); anti-BAK (Calbiochem, CA, 1:1000). HRPO-conjugated secondary antibodies (CalTag, CA, 1:2000) were visualized by chemiluminescence (Amersham, N.J.).
(§1) Mitochondria were incubated with increasing amounts of digitonin to assess how much cytochrome c was released from IMS by the selective solubilization of the OM (Hoppel and Cooper, 107, 367-375, 1968). To monitor interaction of digitonin with the […], uncoupled respiration in the presence of excess exogenous cytochrome c was assessed. Specifically 0.5 mg/ml mitochondria was incubated in EB with the indicated concentration of digitonin. After 5 minutes, mitochondria were centrifuged and cytochrome c content in the resulting pellet and supernatant were determined as described. Uncoupled JO2, uncoupled respiratory rate was recorded in parallel experiments. After 5 minutes of incubation with the indicated concentration of digitonin, mitochondria were treated with 400 pmol CCCP×mg protein-1 in the presence of 10 nmol cytochrome c×mg protein.

[2] = system: Bak −/− mitochondria; test: Digitonin releasable cytochrome c pool; format: biochemical; settings: digitonin concentration that does not interfere with IM function (80 pmol × mg protein^−1, 5 mins)
[3] = system: mitochondria; test: Uncoupled respiration (JO2) of digitonin-treated mitochondria; format: biochemical, Balb/cJ mice; settings: CCCP, exogenous cytochrome c
Experimental: as §1, with “protein. Approximately 16% of the total cytochrome c could be released by digitonin without substantial respiratory inhibition (no interference of digitonin with the IM) (Table 1), a percentage in agreement with the pool of cytochrome c estimated to reside in the IMS (Bernardi and Azzone, 1981). Therefore, tBID must deploy additional events to enable the release of nearly all cytochrome c from the mitochondrion.” for “protein.”

[4] = system: wt mitochondria; test: Cytochrome b5-dependent NADH oxidation assay; format: biochemical, Balb/cJ mice; settings: 10 μM BID α6 14mer, 20 min
Experimental: (d), mitochondria were preincubated for 2 min with 800 pmol CsA×mg protein^−1. (a), no additions. After 15 min, respiratory chain inhibitors were added and after another 2 minutes NADH fluorescence reading started. Arrow, 20 nmol NADH×mg protein^−1. In (e), 200 nmol mersalyl×mg protein was added 1 min before NADH.
In the cytochrome b5-dependent NADH oxidation assay, 1 mg/ml mitochondria were incubated in EB and treated as indicated. 400 pmol CCCP, 2 nmol rotenone and 1 nmol antimycin A×mg protein^−1 were added after the time indicated and the reaction transferred to a cuvette. After 2 min, 10 μM NADH was added and its oxidation monitored as the decrease in NADH fluorescence in a LS50B spectrofluorimeter (Perkin Elmer) set with λex=366 nm and λem=455 nm, with 5 nm slits.

[5] = system: calcein loaded mitochondria; test: Release of matrix-entrapped calcein (transient PTP opening); format: biochemical, Balb/cJ mice; settings: 10 μM BID α6 14mer
Experimental: To assess calcein release, mitochondria suspended in IB without BSA were loaded with 10 nmol×mg protein^−1 calcein-AM (Molecular Probes, Eugene, Oreg.) for 20 mins at room temperature in the dark. Following two washes in IB, the calcein loaded mitochondria were resuspended in IB at a final concentration of 10 mg/ml. 0.5 mg/ml calcein loaded mitochondria were incubated in EB and treated as described. After the indicated time, mitochondria were pelleted. Calcein was measured in an LS-50B spectrofluorimeter (Perkin Elmer) with excitation and emission wavelengths set at 488±2.5 nm and 542±2.5 nm, respectively.
After 30 min mitochondria were spun at 14000 g for 3 min at 4 C and the calcein content in the pellet and in the supernatant was determined. […] To determine if a BID α6 mutation variant, BID α6 mutein (SEQ ID NO:7), would inhibit cytochrome c release, His-tag p22 wt BID and the BID α6 mutein were expressed, purified on a Ni^2+ column, and cleaved with caspase 8.
Mitochondria were loaded with calcein and treated with 10 μM BID α6 14mer. Where noted, mitochondria were pretreated with 1 μM CsA. At the indicated time, mitochondria were pelleted by centrifugation and calcein in the pellet and in the supernatant was determined.

[6] = system: BAK; test: BAK oligomerization (BMH crosslinking, anti-BAK immunoblot); format: biochemical, Balb/cJ mice; settings: 10 μM BID α6 14mer, 30 min
Experimental: In lanes 7-8 mitochondria were pretreated with 800 pmol CsA×mg protein^−1 for 3 mins. After the indicated time, DMSO (lanes 1-2) or 10 mM BMH (lanes 3-8) was added, and after another 30 min the crosslinking reaction was quenched (Wei et al., 2001). The mitochondria were subjected to SDS-PAGE and immunoblot with anti BAK antibody. Star, BAK multimers.
To also determine if the BID α6 14mer (SEQ ID NO:1) modulated BAK oligomerization, mitochondria were incubated for 30 min with 10 μM BID α6 14mer in the presence or in the absence of 1 μM CsA. Crosslinking with BMH, SDS-PAGE and anti BAK immunoblotting was carried out.

[7] = system: mitochondria; test: Mitochondrial swelling by side scatter at 545 nm; format: biochemical, Balb/cJ mice; settings: 10 μM 14mer
Experimental: tBID was evaluated to determine if it causes any swelling or depolarization that might reflect an opening of the PTP. Swelling of 0.5 mg/ml mitochondria incubated in EB was monitored by changes in side scatter at 545±2.5 nm using LS-50B spectrofluorimeter equipped with magnetic stirring at 25° C. Membrane potential changes of 0.5 mg/ml mitochondria incubated in experimental buffer were monitored from the dequenching of a 0.3 μM Rhodamine 123 (Molecular Probes, OR) solution in a LS-50B spectrofluorimeter at 25° C., using excitation and emission wavelengths set at 503±2.5 nm and 525±5 nm, respectively.
To determine if the BID α6 14mer (SEQ ID NO:1) induced mitochondrial swelling or release of cytochrome c across the mitochondrial outer membrane, mitochondria at 1 mg/ml were incubated in experimental buffer and, where indicated, 20 μM Ca^2+ and 10 μM 14mer were added. Where noted, mitochondria were preincubated with CsA. […] Mitochondria were incubated with 10 μM 14mer in the presence or in the absence of 1 μM CsA. At the indicated time in minutes, mitochondria were pelleted by centrifugation and cytochrome c in the pellet and in the supernatant was determined.

Molecule | Cytochrome c release (% of total) ([1]; Digitonin 48 pmol × mg protein^−1, 5 minutes) | Cytochrome c release (% of total) ([1]; Digitonin 80 pmol × mg protein^−1, 5 minutes) | Cytochrome c release (% of total) ([1]; Digitonin 145 pmol × mg protein^−1, 5 minutes) | total cytochrome c released by digitonin ([1]; without substantial respiratory inhibition) | release of total cytochrome c by digitonin [2] [%] | Uncoupled JO2 ([3]; Digitonin 48 pmol × mg protein^−1) | Uncoupled JO2 ([3]; Digitonin 80 pmol × mg protein^−1) | Uncoupled JO2 ([3]; Digitonin 145 pmol × mg protein^−1) | mobilization of cytochrome c (cytochrome b5-dependent NADH oxidation) [4] | calcein release (onset of transient PT) [5] | BAK oligomerization [6] | release of cytochrome c across the mitochondrial outer membrane ([1]; 10 μM 14mer) | mitochondrial swelling [7]
C[C@@H]1CC[C@@]2(OC1)O[C@H]1[C@@H](O)[C@H]3[C@@H]4CC[C@H]5C[C@@H](O[C@@H]6O[C@H](CO)[C@H](O[C@@H]7O[C@H](CO)[C@@H](O)[C@H](O[C@@H]8OC[C@@H](O)[C@H](O)[C@H]8O)[C@H]7O[C@@H]7O[C@H](CO)[C@H](O)[C@H](O[C@@H]8O[C@H](CO)[C@@H](O)[C@H](O)[C@H]8O)[C@H]7O)[C@H](O)[C@H]6O)[C@H](O)C[C@]5(C)[C@H]4CC[C@]3(C)[C@H]1[C@@H]2C [Digitonin] | 10.7 % of total | 16.4 % of total | 26.6 % of total | Approximately 16% | 19.2±4.8 | 60 nAt × min^−1 × mg protein^−1 | 60 nAt × min^−1 × mg protein^−1 | 46.7 nAt × min^−1 × mg protein^−1 |  |  |  |  | 
NH2-XMLXXXXLLAKKVA—COOH [BID α6 14mer, 14 amino acid peptide of the BID α6 helix] |  |  |  |  |  |  |  |  | induced the mobilization of cytochrome c; also recorded: induces cytochrome c redistribution | resulted in the efflux of mitochondrial matrix entrapped calcein; also recorded: causes calcein release from mitochondria | did not result in BAK oligomerization; also recorded: does not induce BAK oligomerization | nor did it trigger the actual release of cytochrome c across the mitochondrial outer membrane; also recorded: does not cause cytochrome c release across the outer membrane | did not induce swelling of mitochondria; also recorded: does not induce mitochondrial swelling
